According to paper PMC7316994, “In Vitro Pharmacological Profile of a New Small Molecule Bradykinin B2 Receptor Antagonist” (Frontiers in Pharmacology, 2020):

Legend:
Bombesin BB1 = molecular target: T1, Bombesin BB1 (Homo sapiens, UniProt P28336); assay: functional assay, intracellular [Ca2+], CHO cells (Table S2); assay type: cell-based
T1 construct: host or cells: CHO cells

Neurokinin NK1 = Neurokinin NK1 (Homo sapiens, UniProt P25103); assay type: cell-based
[1] = molecular target: T2, Gonadotropin-releasing hormone (Homo sapiens, UniProt P30968); assay: radioligand binding (Table S2); details: [125I] [D-Trp6]-LH-RH, Human recombinant Chem-1 cells
T2 construct: host or cells: Chem-1 cells
T2 sequence (P30968 whole entry): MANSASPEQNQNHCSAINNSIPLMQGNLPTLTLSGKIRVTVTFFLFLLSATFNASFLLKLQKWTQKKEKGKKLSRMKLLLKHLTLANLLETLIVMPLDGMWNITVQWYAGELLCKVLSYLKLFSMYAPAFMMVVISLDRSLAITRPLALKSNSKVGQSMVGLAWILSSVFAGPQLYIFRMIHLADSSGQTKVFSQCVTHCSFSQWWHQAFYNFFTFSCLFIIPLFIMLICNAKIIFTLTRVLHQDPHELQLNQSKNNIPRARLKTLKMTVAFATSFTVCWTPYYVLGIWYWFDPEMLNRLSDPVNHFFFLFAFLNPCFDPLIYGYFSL

5-HT2A receptor = molecular target: T3, 5-HT2A receptor (Homo sapiens, UniProt P28223); assay: umbilical vein, serotonin-induced contraction; details: Compound 2 10 μM; Compound 3 1 μM
T3 construct: other endogenously expressed receptors in the human umbilical vein; from tissue; host or cells: human umbilical vein rings
Text: The local ethics committee (CHU de Québec-Université Laval) had approved the project (File no. 2017-3720). Umbilical cords were obtained following elective caesarean sections; all problematic deliveries are excluded. Informed consent was obtained from the mothers. The cords were transported from the maternity ward to the laboratory in sterile Hank's balanced salt solution containing penicillin and streptomycin. Segments of umbilical veins were dissected carefully from the cords and a metal rod was inserted in the lumen. Excess connective tissue was excised and rings (2–3 mm wide) were cut. Rings of umbilical veins were suspended in 5-mL organ chambers containing oxygenated (95% O2, 5% CO2) and warmed (37°C) Krebs' solution between a metal hook and a thread loop. This solution had the following composition: NaCl 117.5 mM, KCl 4.7 mM, KH2PO4 1.2 mM, MgSO4 1.18 mM, CaCI2 2.5 mM, NaHCO3 25.0 mM, and D-glucose 5.5 mM. A baseline of one gram-weight was applied to these preparations. Changes of tension were recorded by using isometric transducers (model 52-9545, Harvard Bioscience, South Natick MA). Eight tissue baths are operated in parallel.
For this purpose, contractile responses to serotonin, acting on the 5-HT2A receptor, and U-46619, acting at the prostanoid TP receptor, were measured ([Rogines-Velo et al., 2002]; [Daray et al., 2003]).

Cannabinoid CB1 = Cannabinoid CB1 (Homo sapiens, UniProt P21554); assay: radioligand binding (Table S2); details: read-out: % Inhibition @ 10 µM
Sequence of Cannabinoid CB1 (P21554 whole entry): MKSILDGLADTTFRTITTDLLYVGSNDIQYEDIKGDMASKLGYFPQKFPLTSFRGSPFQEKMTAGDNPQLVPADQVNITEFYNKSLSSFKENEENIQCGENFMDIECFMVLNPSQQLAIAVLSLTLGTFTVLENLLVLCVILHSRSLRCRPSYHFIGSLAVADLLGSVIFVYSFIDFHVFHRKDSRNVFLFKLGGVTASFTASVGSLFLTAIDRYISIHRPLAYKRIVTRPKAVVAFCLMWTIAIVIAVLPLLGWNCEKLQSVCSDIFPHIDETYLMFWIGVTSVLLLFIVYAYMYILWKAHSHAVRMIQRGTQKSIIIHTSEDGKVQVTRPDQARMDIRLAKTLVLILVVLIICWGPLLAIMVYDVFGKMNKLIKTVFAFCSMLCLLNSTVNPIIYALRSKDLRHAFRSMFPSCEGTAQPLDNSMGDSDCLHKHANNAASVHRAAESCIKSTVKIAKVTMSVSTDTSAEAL

Cholecystokinin CCK1 = Cholecystokinin CCK1 (Homo sapiens, UniProt P32238); assay: radioligand binding (Table S2); details: [125I] CCK-8s, Human recombinant CHO cells
Sequence of Cholecystokinin CCK1 (P32238 whole entry): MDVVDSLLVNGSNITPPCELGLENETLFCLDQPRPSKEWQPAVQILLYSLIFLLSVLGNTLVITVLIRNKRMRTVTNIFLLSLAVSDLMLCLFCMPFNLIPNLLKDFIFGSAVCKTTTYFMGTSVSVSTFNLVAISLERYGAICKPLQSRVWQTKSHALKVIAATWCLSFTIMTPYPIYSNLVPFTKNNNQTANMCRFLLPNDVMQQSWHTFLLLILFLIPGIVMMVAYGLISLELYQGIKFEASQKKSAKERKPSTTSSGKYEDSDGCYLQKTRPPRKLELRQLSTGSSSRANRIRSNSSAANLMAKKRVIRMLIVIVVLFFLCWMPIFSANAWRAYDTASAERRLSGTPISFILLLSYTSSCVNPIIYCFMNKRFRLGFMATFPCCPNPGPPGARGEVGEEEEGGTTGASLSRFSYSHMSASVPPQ

Muscarinic M1 = Muscarinic M1 (Homo sapiens, UniProt P11229); assay: radioligand binding (Table S2); details: read-out: % Inhibition @ 10 µM
Serotonin 5-HT2B = molecular target: T4, Serotonin 5-HT2B (Homo sapiens, UniProt P41595); assay: radioligand binding (Table S2); details: [125I] (±)DOI, Human recombinant CHO cells
T4 construct: host or cells: CHO cells
T4 sequence (P41595 whole entry): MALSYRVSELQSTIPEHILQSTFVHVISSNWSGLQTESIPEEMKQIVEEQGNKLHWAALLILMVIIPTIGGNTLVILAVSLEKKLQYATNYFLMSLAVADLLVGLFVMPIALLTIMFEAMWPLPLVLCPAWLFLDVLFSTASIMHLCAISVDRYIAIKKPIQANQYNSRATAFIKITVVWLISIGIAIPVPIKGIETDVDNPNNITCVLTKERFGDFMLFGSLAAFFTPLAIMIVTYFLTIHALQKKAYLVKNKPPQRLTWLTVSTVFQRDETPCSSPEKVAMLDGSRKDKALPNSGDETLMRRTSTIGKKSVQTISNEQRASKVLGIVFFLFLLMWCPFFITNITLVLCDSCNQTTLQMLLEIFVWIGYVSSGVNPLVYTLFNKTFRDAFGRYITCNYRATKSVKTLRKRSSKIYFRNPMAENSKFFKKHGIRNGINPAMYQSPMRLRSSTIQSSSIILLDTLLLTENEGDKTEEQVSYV

Serotonin 5-HT3 = molecular target: T5, Serotonin 5-HT3 (Homo sapiens, UniProt P46098); assay: radioligand binding (Table S2); details: [3H] BRL 43694, Human recombinant CHO cells
T5 construct: host or cells: CHO cells
T5 sequence (P46098 24-478): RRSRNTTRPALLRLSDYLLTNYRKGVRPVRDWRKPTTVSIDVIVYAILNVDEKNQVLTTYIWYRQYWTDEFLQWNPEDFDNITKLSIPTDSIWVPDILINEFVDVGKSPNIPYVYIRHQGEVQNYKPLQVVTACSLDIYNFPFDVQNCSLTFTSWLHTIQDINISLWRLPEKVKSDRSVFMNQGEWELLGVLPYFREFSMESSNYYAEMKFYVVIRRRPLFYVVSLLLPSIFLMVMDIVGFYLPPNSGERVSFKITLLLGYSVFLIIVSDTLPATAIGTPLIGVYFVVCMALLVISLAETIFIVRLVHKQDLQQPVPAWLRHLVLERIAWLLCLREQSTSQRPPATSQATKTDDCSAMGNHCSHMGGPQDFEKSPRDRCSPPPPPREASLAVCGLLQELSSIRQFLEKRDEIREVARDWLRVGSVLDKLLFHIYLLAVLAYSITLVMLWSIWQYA

Vasopressin V2 = molecular target: T6, Vasopressin V2 (Homo sapiens, UniProt P30518); assay: functional assay, cAMP HTRF, CHO cells (Table S2); assay type: cell-based; details: read-out: % inhibition of reference agonist response @ 10 µM (antagonist effect), AVP (0.03 nM)
T6 construct: expressed in transfected cells; host or cells: CHO cells
T6 sequence (P30518 whole entry): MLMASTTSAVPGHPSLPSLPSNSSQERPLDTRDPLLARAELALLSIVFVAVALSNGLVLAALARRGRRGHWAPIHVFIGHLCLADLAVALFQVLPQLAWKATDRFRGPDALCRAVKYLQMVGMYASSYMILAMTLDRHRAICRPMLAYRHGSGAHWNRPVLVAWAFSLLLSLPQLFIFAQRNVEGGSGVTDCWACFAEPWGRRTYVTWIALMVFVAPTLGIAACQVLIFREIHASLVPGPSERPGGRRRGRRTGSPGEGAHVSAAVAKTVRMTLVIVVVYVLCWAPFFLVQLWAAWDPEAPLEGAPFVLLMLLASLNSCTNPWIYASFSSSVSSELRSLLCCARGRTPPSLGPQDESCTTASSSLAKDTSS

Prostanoid EP2 = molecular target: T7, Prostanoid EP2 (Homo sapiens, UniProt P43116); assay: radioligand binding (Table S2); details: [3H] Prostaglandin E2, Human recombinant HEK-293 cells
T7 construct: host or cells: HEK-293 cells

in vitro = details: male, Wistar, rat, microsomes, pH 7.4
C5a = molecular target: T8, C5a (Homo sapiens, UniProt P21730); assay: functional assay, cAMP HTRF, HEK-293 cells (Table S2); assay type: cell-based
T8 construct: expressed in transfected cells; host or cells: HEK-293 cells
T8 sequence (P21730 whole entry): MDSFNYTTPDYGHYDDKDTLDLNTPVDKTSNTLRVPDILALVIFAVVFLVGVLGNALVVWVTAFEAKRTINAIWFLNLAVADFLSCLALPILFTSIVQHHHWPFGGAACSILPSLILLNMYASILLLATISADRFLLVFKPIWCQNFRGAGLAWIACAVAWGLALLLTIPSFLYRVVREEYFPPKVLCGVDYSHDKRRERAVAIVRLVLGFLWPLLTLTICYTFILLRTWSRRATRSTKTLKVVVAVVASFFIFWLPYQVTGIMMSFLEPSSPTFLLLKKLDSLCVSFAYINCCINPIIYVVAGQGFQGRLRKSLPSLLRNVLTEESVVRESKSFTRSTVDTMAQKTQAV

human myc-B2 receptor = molecular target: T9, human myc-B2 receptor (Homo sapiens, UniProt P30411); assay: c-Fos immunoblot, HEK 293a cells stably expressing myc-B2 receptor; assay type: cell-based; details: BK 10 nM
T9 construct: expressed in transfected cells
T9 sequence (P30411 1-391): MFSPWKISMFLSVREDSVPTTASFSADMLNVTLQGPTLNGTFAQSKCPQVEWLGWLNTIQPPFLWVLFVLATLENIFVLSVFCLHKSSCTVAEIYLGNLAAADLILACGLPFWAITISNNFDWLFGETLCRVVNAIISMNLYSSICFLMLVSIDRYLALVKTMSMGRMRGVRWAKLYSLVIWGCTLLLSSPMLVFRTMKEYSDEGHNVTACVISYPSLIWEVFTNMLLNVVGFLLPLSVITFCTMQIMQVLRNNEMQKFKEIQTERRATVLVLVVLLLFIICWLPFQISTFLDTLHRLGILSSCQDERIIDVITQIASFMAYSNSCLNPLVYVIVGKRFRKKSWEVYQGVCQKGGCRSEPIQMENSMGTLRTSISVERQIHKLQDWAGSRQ
Text: Supplementary Methods: Immunoblots for c-Fos signaling
The construction of myc-tagged B2 receptor expression vector containing the human receptor sequence has been recently reported, as well as the derivation of HEK293a cell lines that stably express the construction (Charest-Morin et al., 2015). Immunoblotting experiments, conducted as described (Koumbadinga et al., 2010), were used to study the effect of selected antagonists on BK-induced signaling. Briefly, HEK 293a cells stably expressing the human myc-B2 receptor were stimulated with BK agonists for 60 min at 37°C, with or without a pretreatment with the antagonist (applied 15 min before BK). Total cell extracts were immunoblotted to detect c-Fos expression using the K-25 rabbit polyclonal antibodies (Santa Cruz Biotechnology, Dallas, TX; dilution 1:50,000). In these experiments, β-actin was used as a loading control and was detected using the monoclonal anti-β-actin antibody, clone AC-15 (Sigma-Aldrich; dilution 1:50,000).

[2] = molecular target: T10, Vasoactive intestinal peptide VPAC1 (VIP1) (Homo sapiens, UniProt P32241); assay: radioligand binding (Table S2); details: [125I] VIP, Human recombinant CHO cells
T10 construct: host or cells: CHO cells
T10 sequence (P32241 31-457): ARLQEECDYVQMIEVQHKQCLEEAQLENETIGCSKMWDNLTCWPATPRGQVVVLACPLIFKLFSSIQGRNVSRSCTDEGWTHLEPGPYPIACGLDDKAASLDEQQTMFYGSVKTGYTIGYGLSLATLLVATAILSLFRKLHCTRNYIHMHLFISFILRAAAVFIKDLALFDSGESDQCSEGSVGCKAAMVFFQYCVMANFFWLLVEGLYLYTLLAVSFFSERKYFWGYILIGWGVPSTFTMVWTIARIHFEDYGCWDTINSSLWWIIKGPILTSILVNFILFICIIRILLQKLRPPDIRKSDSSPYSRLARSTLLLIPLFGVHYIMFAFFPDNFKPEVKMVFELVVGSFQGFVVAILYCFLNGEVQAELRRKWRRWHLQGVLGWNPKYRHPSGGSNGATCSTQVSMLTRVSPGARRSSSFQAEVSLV

Somatostatin sst2 = Somatostatin sst2 (Homo sapiens, UniProt P30874); assay: radioligand binding (Table S2); details: [125I] Tyr11-Somatostatin 14, Human recombinant CHO-K1 cells
Sequence of Somatostatin sst2 (P30874 whole entry): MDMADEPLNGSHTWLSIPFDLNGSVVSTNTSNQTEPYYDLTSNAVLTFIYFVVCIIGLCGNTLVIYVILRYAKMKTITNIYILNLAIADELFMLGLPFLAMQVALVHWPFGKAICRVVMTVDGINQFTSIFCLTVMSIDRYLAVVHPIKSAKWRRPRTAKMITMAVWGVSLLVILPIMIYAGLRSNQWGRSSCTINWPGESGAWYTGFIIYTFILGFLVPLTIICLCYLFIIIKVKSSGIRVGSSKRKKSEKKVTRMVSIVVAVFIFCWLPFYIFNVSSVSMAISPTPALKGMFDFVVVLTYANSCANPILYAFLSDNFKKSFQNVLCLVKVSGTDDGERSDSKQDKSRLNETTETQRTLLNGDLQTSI

Melatonin MT1 (ML1A) = molecular target: T11, Melatonin MT1 (ML1A) (Homo sapiens, UniProt P48039); assay: radioligand binding (Table S2); details: [125I] 2-iodomelatonin, Human recombinant CHO cells
T11 construct: host or cells: CHO cells
T11 sequence (P48039 whole entry): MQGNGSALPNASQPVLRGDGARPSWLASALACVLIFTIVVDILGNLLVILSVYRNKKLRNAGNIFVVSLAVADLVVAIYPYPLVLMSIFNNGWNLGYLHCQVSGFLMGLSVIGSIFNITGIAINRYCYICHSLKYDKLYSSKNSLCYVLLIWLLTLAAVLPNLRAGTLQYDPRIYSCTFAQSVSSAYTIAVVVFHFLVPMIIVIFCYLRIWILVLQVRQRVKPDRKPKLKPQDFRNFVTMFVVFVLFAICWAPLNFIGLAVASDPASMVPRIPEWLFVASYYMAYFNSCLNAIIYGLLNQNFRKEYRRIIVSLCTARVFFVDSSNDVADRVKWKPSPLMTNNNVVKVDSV

Sequence of Neurokinin NK1 (P25103 whole entry): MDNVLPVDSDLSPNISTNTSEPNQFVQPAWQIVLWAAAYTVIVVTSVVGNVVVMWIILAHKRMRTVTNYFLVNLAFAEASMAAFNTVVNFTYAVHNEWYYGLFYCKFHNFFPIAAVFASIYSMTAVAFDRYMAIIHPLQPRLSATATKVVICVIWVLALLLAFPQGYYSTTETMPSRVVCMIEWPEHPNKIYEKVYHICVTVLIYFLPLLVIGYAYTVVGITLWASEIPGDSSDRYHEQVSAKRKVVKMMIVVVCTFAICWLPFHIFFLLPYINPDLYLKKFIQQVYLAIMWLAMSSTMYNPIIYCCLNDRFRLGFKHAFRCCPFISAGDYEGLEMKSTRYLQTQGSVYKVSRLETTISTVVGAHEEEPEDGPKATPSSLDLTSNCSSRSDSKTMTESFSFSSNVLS
T1 sequence (P28336 whole entry): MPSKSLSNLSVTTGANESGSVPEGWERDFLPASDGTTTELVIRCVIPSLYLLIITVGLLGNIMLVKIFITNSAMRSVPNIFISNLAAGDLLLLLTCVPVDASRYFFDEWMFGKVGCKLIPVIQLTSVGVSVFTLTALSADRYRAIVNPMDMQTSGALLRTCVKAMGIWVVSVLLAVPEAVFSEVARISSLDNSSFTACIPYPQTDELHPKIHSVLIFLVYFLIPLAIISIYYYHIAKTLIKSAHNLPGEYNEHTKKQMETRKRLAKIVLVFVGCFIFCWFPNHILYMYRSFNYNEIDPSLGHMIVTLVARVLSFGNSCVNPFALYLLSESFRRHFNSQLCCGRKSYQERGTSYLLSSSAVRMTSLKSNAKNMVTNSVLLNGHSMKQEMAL

## Cc1cc(-c2ncnn2C)c2cccc(OCc3c(Cl)cc(F)cc3[C@H](C)NC(=O)COC(F)F)c2n1 [Compound 3, (S)-N-(1-(3-chloro-5-fluoro-2-((2-methyl-4-(1-methyl-1H-1,2,4-triazol-5-yl)quinolin-8-yloxy)methyl)phenyl)ethyl)-2-(difluoromethoxy)acetamide]
Bombesin BB1; CHO, read-out: % inhibition of reference agonist response @ 10 µM (antagonist effect), Neuromedin B (0.1 nM)
  inhibition at 10 µM: 28.5%
Bombesin BB1; reference neuromedin B (10 nM)
  % of reference agonist response @ 10 µM (agonist effect): 4.4%
Neurokinin NK1; 10 µM, reference [Sar9,Met(O2)11]-SP (30 nM)
  % of reference agonist response @ 10 µM (agonist effect): -5.2%
Neurokinin NK1; [Sar9,Met(O2)11]-SP (1 nM), read-out: IC50 (µM), functional antagonism
  IC50: 17 µM
Neurokinin NK1; [Sar9,Met(O2)11]-SP (1 nM), read-out: Kb (µM), functional antagonism
  Kb: 2.4 µM
[1]
  inhibition at 10 µM: 5%
5-HT2A receptor
  effect on serotonin-induced contraction: Lack of antagonist effect
Cannabinoid CB1
  inhibition at 10 µM: -3%
Cholecystokinin CCK1
  inhibition at 10 µM: 2.7%
Muscarinic M1
  inhibition at 10 µM: 3.7%
Serotonin 5-HT2B
  inhibition at 10 µM: -8.9%
Serotonin 5-HT3
  inhibition at 10 µM: 2.1%
Vasopressin V2
  inhibition at 10 µM: -15.1%
Prostanoid EP2
  inhibition at 10 µM: 12%
In vitro
  microsomal CLint at 1 µM: 27.9 µL/min/mg
C5a; HEK293, read-out: % inhibition of reference agonist response @ 10 µM (antagonist effect), hC5a (10 nM)
  inhibition at 10 µM: -0.2%
C5a; reference hC5a (100 nM)
  % of reference agonist response @ 10 µM (agonist effect): -18.1%
Human myc-B2 receptor; 60 min
  antagonist concentration that significantly reduced the c-Fos response to BK: significant effect at equimolar concentration
Human myc-B2 receptor; co-treatment between 10 nM and 1 μM
  effect on BK-induced c-Fos accumulation: inhibited this response in a concentration-dependent manner
[2]
  inhibition at 10 µM: 0.8%
Somatostatin sst2
  inhibition at 10 µM: -7%
Melatonin MT1 (ML1A)
  inhibition at 10 µM: 15.3%
